{
  "source": "patent US7862815B2",
  "about": "“Methods for inhibiting angiogenesis with inhibitors of proadrenomedullin N-terminal 20 peptide (PAMP)” (The United States of America as represented by the …, priority 2002, dated 2011)",
  "key": {"athymic nude mice": {"test_system": "athymic nude mice", "test": "DIVAA with angioreactors, Example 2 (peptides in matrigel)", "type": "in vivo", "experimental": "(§1) Analysis and quantitation of angiogenesis was done using DIVAA as previously described (Martinez et al., J. Natl. Cancer Inst., 21; 94(16):1226-37, 2002; Guedez et al., Am. J. Pathol. 162, 1431-1439, 2003). Briefly, 10 mm long surgical-grade silicone tubes with only one end open (angioreactors) were filled with 20 μl of matrigel alone or mixed with AM, bFGF, VEGF, PAMP, and/or PAMP(12-20) at the indicated concentrations. Human lung cancer cell lines (see below) were also premixed with matrigel alone or in combination with PAMP(12-20) at 10,000 cells per angioreactor. After the matrigel solidified, the angioreactors were implanted into the dorsal flanks of anesthetized athymic nude mice (NCI colony). After eleven days, the mice were injected intravenously with 25 mg/ml FITC-dextran (100 μl/mouse, Sigma) 20 minutes before removing the angioreactors. Photographs of the implants were taken for visual examination of angiogenic response. Quantitation of neovascularization in the angioreactors was determined as the amount of fluorescence trapped in the implants and was measured in a HP Spectrophotometer (Perkin Elmer).\nTo further characterize this observation, an […] assay was employed that allows for more precise quantitation of angiogenic properties: the directed […] angiogenesis assay or DIVAA (Martinez et al., J. Natl. Cancer Inst., 21; 94(16): 1226-37, 2002; Guédez et al., Am. J. Pathol. 162, 1431-1439, 2003). The assay involves implanting small silicone capsules carrying the test substances under the skin of nude mice. After eleven days, the mice are injected with a specific amount of FITC-dextran, and the volume of blood circulating through the implant is quantified by measuring the fluorescence in the capsule. In addition, the new blood vessels growing into the silicone tube can be seen directly by transparency (FIG. 4A-F). […] The extent of the angiogenic response can be seen clearly when this response is compared with the negative control (FIG. 4A). The angiogenic response elicited by PAMP was dose-dependent (FIG. 4C-G). When compared to AM and VEGF responses at equimolar concentrations, a clear difference was observed."}, "A549": {"test_system": "A549", "test": "DIVAA, angiogenesis induced by tumor cells embedded in matrigel", "type": "in vivo, human", "details": "A549, 10,000 cells per angioreactor, 100 nM PAMP(12-20)", "experimental": "as §1\n(§2) The human cancer cell lines used, A549 and H1299, were obtained from the American Tissue Culture Collection (ATCC) and fed with RPMI164O containing 10% fetal bovine serum (Invitrogen). […]"}, "H1299": {"test_system": "H1299", "test": "DIVAA, angiogenesis induced by tumor cells embedded in matrigel", "type": "in vivo, human", "details": "H1299, 10,000 cells per angioreactor, 100 nM PAMP(12-20)", "experimental": "as §1, §2"}, "[1]": {"test_system": "Human dermal microvascular endothelial cells", "test": "Calcium measurements (ATP-induced calcium flux)", "type": "cell-based", "details": "100 nM PAMP(12-20) with 10 nM PAMP and 1 mM ATP", "experimental": "Human dermal microvascular endothelial cells were obtained from Cell Applications, Inc. and cultured in 96-well plates at 1.0×10^5 cells per well. The cells were loaded for 60 minutes at room temperature with the fluorescent dye FLIPR (Molecular Devices) and then transferred to the FlexStation II (Molecular Devices) for analysis. The test compounds were prepared in another plate at a concentration of 5× and were added to the proper wells by the robotic arm of the FlexStation II. Fluorescence was measured every five seconds in each well and recorded. One mM ATP (Sigma) was used as a calcium agonist (Lau et al., Life Sci. 73, 20 19-2028, 2003)."}, "A549 tumors": {"test_system": "A549 tumors", "test": "Xenograft experiment", "type": "in vivo, athymic nude mice", "experimental": "Twenty female athymic nude mice from the NIH colony in Frederick (MD) were injected subcutaneously with 1.0×10^7 A549 cells/mouse. Two weeks later, all the mice had developed palpable tumors under the skin and at this time they were divided in two groups. Three times a week, each individual tumor was measured (length, height, thickness) and every mouse received an intratumoral injection, according to their group. Group 1 (control) received 100 μl PBS. […] When the tumor burden became unbearable, the mice were sacrificed."}},
  "data": [
    {"substance": "proadrenomedullin N-terminal 20 peptide (12-20) (KWNKWALSR; listed as Homo sapiens) [PAMP(12-20), peptide which comprises only amino acids 12-20 of PAMP]", "values": [
      {"measurement": "inhibition of the angiogenic response elicited by PAMP", "setting": "athymic nude mice; 1 nM PAMP with 100 nM PAMP(12-20) (hundred-fold excess)", "result": "inhibited angiogenesis to the basal levels"},
      {"measurement": "inhibition of the angiogenic response elicited by PAMP", "setting": "athymic nude mice; 1 nM full-length PAMP with increasing doses of PAMP(12-20)", "result": "dose-dependent inhibition"},
      {"measurement": "effect on basal angiogenesis", "setting": "athymic nude mice; PAMP(12-20) by itself", "result": "did not modify basal angiogenesis"},
      {"measurement": "inhibition of tumor cell-induced angiogenic response", "setting": "A549", "result": "completely blocked"},
      {"measurement": "inhibition of tumor cell-induced angiogenic response", "setting": "H1299", "result": "completely blocked"},
      {"measurement": "reversal of PAMP block of ATP-induced calcium response", "setting": "[1]", "result": "initial response was recovered"},
      {"measurement": "treatment time after which statistical differences in tumor size were observed", "setting": "A549 tumors; 1 mM PAMP(12-20) versus PBS, ten mice per group", "result": "nine"},
      {"measurement": "tumor growth versus PBS control", "setting": "A549 tumors; 1 mM PAMP(12-20), 100 μl intratumoral injection three times a week", "result": "slower rate of tumor growth"}
    ]}
  ]
}
